Measurements taken from patent US20150065575A1, “S100A8/A9 as a Diagnostic Marker and a Therapeutic Target” (Sloan-Kettering Institute for Cancer Research, priority 2012, published 2015).

Key:
[1] = system: PMN; conditions: similar potencies for both; cited from earlier work
[2] = system: LM2 and CN34LM1 lung metastatic human breast cancer cell lines; test: Preclinical trial of AC chemotherapy and CXCR2 antagonist in orthotopic lung metastatic breast cancer xenografts; assay type: in vivo, mice
Method: Data represent average expression±SEM. n=10-13 mice per group. P values were determined by Student's t-test. *p=0.02, **p=0.007.
Data are average foci per field of view (FOV)±SEM. n=5-10 mice per group. Whiskers represent minimum and maximum values. P values were determined by two-tailed Wilcoxon rank-sum test.
Tumor vessel characteristics and lung metastatic foci size and number were quantified using Metamorph software (Molecular Devices) as previously described (DeNardo et al., 2009; Gupta et al., 2007). In brief, 10 random images at 20× magnification were taken per tumor section stained with CD34, MECA32 or Von Willebrand factor by immunohistochemistry. Images were thresholded, stained area was calculated by counting objects per field and vessel characteristics were analyzed using Metamorph measurement module. For quantitating lung metastatic foci area and number, 8-12 random images at 20× magnification were taken per lung section stained with vimentin by immunohistochemistry. A minimum of 5 sections was analyzed per animal across different depths of the tissue. For quantitation, images were thresholded and number of metastatic foci determined. Metastatic foci was considered if they contained more than 5 cells. Foci were counted and analyzed using Metamorph measurement module. […]

Compound | CXCL8- and CXCL1-mediated PMN chemotaxis [1] | lung metastatic burden ([2]; CXCR2 inhibitor combined with AC chemotherapy) | S100A9 expressing cells (immunostaining) ([2]; CXCR2 inhibitor/chemotherapy treatment)
C[C@@H](C(N)=O)c1ccc(OS(=O)(=O)C(F)(F)F)cc1 [4-[(1R)-2-amino-1-methyl-2-oxoethyl]phenyl trifluoromethane sulfonate] | inhibit |  | 
N#Cc1ccc(NC(=O)Nc2ccccc2Br)c2n[nH]nc12 [CXCR2 inhibitor] |  | markedly reduced | significant reduction
